These results are taken from ChEMBL document CHEMBL1201862, “PubChem BioAssay data set” (2004).

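Five compound concentrations were applied to cells in 96-well plates for 48 hours; endpoints were derived by simple linear interpolation of the resulting dose-response curve. The concentration for 50% growth inhibition is given as GI50.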 Calls of active or inactive are those of the source. No stated cut-off is given here; in the data, active = GI50 up to about 1.1 µM and inactive = higher.

Assay in all cases: NCI-60 cell line screen, 48 h
The test system of assay [1] is 786-0.
The test system of assay [2] is ACHN.
For assay [3], the system named is CCRF-CEM.
The subject of assay [4] is COLO 205.
Assay [5] deals with DU-145.
Assay [6] has as its system HL-60.
Assay [7] deals with HOP-92.
Assay [8] relates to K562.
Assay [9] concerns KM12.
Assay [10] concerns Malme-3M.
Assay [11] deals with NCI-H460.
Assay [12] deals with OVCAR-3.
Assay [13] concerns RPMI-8226.
Assay [14] relates to SK-MEL-5.
In assay [15] the test system is SK-OV-3.
The test system of assay [16] is SNB-19.
The test system of assay [17] is TK-10.
Assay [18] deals with UO-31.
For assay [19], the system named is HCT-116.
Assay [20] relates to SF-539.

As to `Cc1cc(C)nc(NS(=O)(=O)c2ccc(Nc3c4ccccc4nc4c(C(=O)NCCCN(CCO)CCO)cccc34)cc2)n1`, the GI50 in assay [1] is > 10 µM (inactive); in assay [2] it was 22.9 µM (inactive); in [3] it was 7.66 µM (inactive); in assay [4], 14 µM (inactive); in assay [5], 41.6 µM (inactive); in assay [6], 11.5 µM (inactive). Moreover, the GI50 was 5.18 µM (inactive) in assay [7]; 10.6 µM (inactive) in assay [8]; 12.6 µM (inactive) in assay [9]; 15.4 µM (inactive) in assay [10]; 7.48 µM (inactive) in [11]; 30.1 µM (inactive) in assay [12]. Also, the GI50 in assay [13] is 9.38 µM (inactive); in assay [14], 14.8 µM (inactive); in assay [15], 50.1 µM (inactive); in assay [16], 9.29 µM (inactive); in assay [17], > 100 µM (inactive); in assay [18], 42 µM (inactive).
Consider `CCOC(=O)c1nc2cc(C(F)(F)F)ccc2nc1Nc1ccc(C(=O)OC)s1`, for which the GI50 in assay [1] was 29.6 µM (inactive); in assay [2], 37.8 µM (inactive); in assay [3], 30.6 µM (inactive); in assay [4], 20.7 µM (inactive); in assay [5] it was 54.6 µM (inactive); in assay [19], 35.3 µM (inactive). Moreover, the GI50 in assay [6] is 38 µM (inactive); in assay [7], 17.9 µM (inactive); in assay [8] it was 31.6 µM (inactive); in [9] it was 38.7 µM (inactive); in assay [10], 38.5 µM (inactive); in assay [11], 33 µM (inactive). Also, the GI50 is 19.3 µM (inactive) in assay [12]; 30.7 µM (inactive) in assay [13]; 40.5 µM (inactive) in assay [14]; 47.3 µM (inactive) in assay [15]; 33.1 µM (inactive) in [16]; 42.8 µM (inactive) in assay [17]. In addition, in assay [18], the GI50 is 33.3 µM (inactive).
Take `O=C(c1ccccc1)c1ccc2[nH]c(-c3c(Cl)c(Cl)c(Cl)c(Cl)c3C(=O)N/N=C/c3ccccc3)nc2c1`: the GI50 in assay [1] is 26.1 µM (inactive); in assay [2], 16.7 µM (inactive); in assay [3], 12.3 µM (inactive); in assay [4] it was 17.5 µM (inactive); in [5] it was 38 µM (inactive); in [19] it was 32.1 µM (inactive). The GI50 in assay [6] was 18.6 µM (inactive); in assay [7], 23.7 µM (inactive); in assay [8], 27.7 µM (inactive); in [9], 28.2 µM (inactive); in [10], 26.1 µM (inactive); in [12], 19.6 µM (inactive). For the same molecule, the GI50 in assay [13] is 23.4 µM (inactive); in assay [20], 25.1 µM (inactive); in assay [14], 14.5 µM (inactive); in assay [15], 35.7 µM (inactive); in [16], 32.6 µM (inactive); in assay [17], 38.8 µM (inactive). In addition, the GI50 in assay [18] is 27.5 µM (inactive).
As to `OCC1CCCCCCCCCCC12SCCCS2` (configuration not stated), the GI50 in assay [1], in assay [2], in [3], in assay [4], in assay [5] and in assay [19] was > 100 µM (inactive) in each case. Also, the GI50 in assay [6] was > 100 µM (inactive); in [7], > 100 µM (inactive); in assay [8], 48.2 µM (inactive); in assay [9], > 100 µM (inactive); in [10] it was > 100 µM (inactive); in [11] it was > 100 µM (inactive). For the same molecule, the GI50 in assay [12], in assay [13], in [14], in [15], in [16] and in assay [17] was > 100 µM (inactive) in each case. The GI50 in assay [18] is > 100 µM (inactive).
With `CCCCc1ccc(Nc2nc3c(ncn3C3CC(O)C(CN=[N+]=[N-])O3)c(=O)[nH]2)cc1` (configuration not stated), the GI50 in assay [1], in [2], in assay [3], in assay [4], in assay [5] and in assay [19] was > 100 µM (inactive) in each case. In addition, the GI50 in [6], in assay [7], in [8], in assay [9], in assay [10] and in assay [11] was > 100 µM (inactive) in each case. Also, the GI50 in assay [12], in assay [13], in assay [14], in assay [15], in assay [16] and in assay [18] was > 100 µM (inactive) in each case.
In the case of `O=C1/C(=C/c2ccc(Cl)cc2)N=C(c2ccccc2)N1c1nc2c(Cl)cc(Cl)cc2s1`, the GI50 in assay [1] is 31.8 µM (inactive); in [2], 31.7 µM (inactive); in assay [3], 3.45 µM (inactive); in [4], 37.9 µM (inactive); in [5], 33.7 µM (inactive); in assay [19] it was 20 µM (inactive). The GI50 was 17.3 µM (inactive) in assay [6]; 26.2 µM (inactive) in assay [7]; 25.1 µM (inactive) in assay [8]; 24.3 µM (inactive) in assay [9]; 28.6 µM (inactive) in assay [11]; 19.8 µM (inactive) in assay [12]. In addition, the GI50 was 12.5 µM (inactive) in assay [13]; 22.3 µM (inactive) in [20]; 18.9 µM (inactive) in assay [14]; 28.1 µM (inactive) in assay [15]; 34.8 µM (inactive) in assay [16]; 42.1 µM (inactive) in assay [17]. In assay [18], the GI50 was 25.8 µM (inactive).
As to `NCC(Cc1ccccc1)P(=O)(O)O` (configuration not stated), the GI50 in assay [1], in assay [2], in assay [3], in assay [4], in [5] and in [19] was > 100 µM (inactive) in each case. Further, the GI50 in assay [6], in [7], in assay [8], in assay [9], in assay [10] and in assay [11] was > 100 µM (inactive) each time. In addition, the GI50 in assay [12], in assay [20], in assay [14], in assay [15], in [16] and in [17] was > 100 µM (inactive) each time. The GI50 in assay [18] was > 100 µM (inactive).
With `C#CC(O)/C=C/C(O)CCCC(O)CC#CC(O)C#CCCCCC(O)/C=C/CCCCCC(=O)CCCCCCCCCCCCCC(O)C(O)C#CC(=O)O` (configuration not stated), the GI50 in assay [1] was > 25 µM (inactive); in [2] it was > 25 µM (inactive); in assay [3], 6.81 µM (inactive); in assay [4] it was > 25 µM (inactive); in assay [5] it was > 25 µM (inactive); in assay [19] it was > 25 µM (inactive). Also, the GI50 in assay [6], in [7], in assay [8], in [9], in assay [10] and in assay [11] was > 25 µM (inactive) each time. Moreover, the GI50 in assay [13] was > 25 µM (inactive); in assay [14] it was > 25 µM (inactive); in [15], > 25 µM (inactive); in assay [16], > 25 µM (inactive); in assay [17], > 25 µM (inactive); in assay [18], 11.5 µM (inactive).
With `CC(C)(N)C(=O)N[C@@H]1C(=O)N2[C@@H]1SC(C)(C)[C@@H]2C(=O)O`, the GI50 in [1] is > 100 µM (inactive); in assay [2], > 100 µM (inactive); in assay [4] it was > 100 µM (inactive); in assay [5], > 100 µM (inactive); in assay [19], > 100 µM (inactive); in assay [6] it was < 0.01 µM (active). For the same molecule, the GI50 in [7], in [8], in [9], in [10], in assay [11] and in assay [12] was > 100 µM (inactive) throughout. Also, the GI50 in [13], in [20], in assay [14], in assay [15], in assay [16] and in assay [17] was > 100 µM (inactive) each time. The GI50 in assay [18] is > 100 µM (inactive).
For `NC(=O)NC(=O)c1cccc(NC(=O)CBr)c1`, the GI50 in assay [1] is < 0.01 µM (active); in assay [2], < 0.0209 µM (active); in [3], < 0.01 µM (active); in assay [4], < 0.01 µM (active); in [5], < 0.022 µM (active); in assay [19] it was < 0.01 µM (active). Besides, the GI50 in assay [6] is < 0.01 µM (active); in assay [7], < 0.0216 µM (active); in assay [8], < 0.01 µM (active); in assay [9], 0.0216 µM (active); in assay [11], < 0.0509 µM (active); in assay [12] it was < 0.01 µM (active). The GI50 is < 0.0141 µM (active) in assay [13]; < 0.0362 µM (active) in [20]; < 0.0119 µM (active) in assay [14]; 0.0272 µM (active) in assay [15]; 0.515 µM (active) in [16]; < 0.0231 µM (active) in assay [17]. Moreover, in [18], the GI50 is 0.209 µM (active).
